In patent US5648244A, “Production, purification, cleavage and use of fusion peptides” (President and Fellows of Harvard College, priority 1993, dated 1997):

Tested on: yeast MATa/sst1Δ strain EY957
Test: Yeast cell arrest (halo) assay
Assay type: cell-based
Text: The mature wild-type α-Factor peptide is a 13 amino acid pheromone secreted by type […] yeast cells, which upon binding to the α-Factor receptor transmits a signal to an internally located G-protein. Once activated, this G protein triggers a series of intracellular events which lead to cellular differentiation (Elion et al., Cell, 60:649-664 (1990)). In the presence of external α-Factor, yeast cells in the early G1 phase of growth will undergo cell cycle arrest. The bioactivity of each recombinant α-Factor could easily be determined in halo assays as a region of low cell density surrounding a central disk spotted with α-Factor (FIG. 5).
Lawns of yeast MATa/sst1Δ strain EY957 were grown on YPD plates and were tested for α-Factor sensitivity as previously described (Elion et al., Cell, 60:649-664 (1990)). α-Factor peptides were dissolved in DMSO and spotted on sterile 6.5 mm paper disks. Peptide amounts were as follows: Wild-type α-Factor (αFWT)-595 pmoles; αI13-homoserine-lactone (αI13-HSl)-6,850 pmoles; αI13-homoserine (αI13-HS)-1,130 pmoles; αI13-homoserine-amide (αI13-HSA)-2,820 pmoles. The zones of inhibition (z.o.i.) for each peptide is the diameter of the low cell density region. […]
^c The zone of inhibition in mm (z.o.i.) was measured for each series […]

With “WHWLQLKPGQPMY [αFWT, Wild-type α-factor from Sigma, 13 amino acid yeast pheromone, reference compound]” the “CA50 (cell arrest50)” value (amount of peptide per disk required to cause 50% of cell arrest) was 74 ± 5 pmol and the “z.o.i.int (y-intercept of upper asymptote of zone of inhibition curve)” value (relative maximal effect, z.o.i. vs pmoles spotted per 6.5 mm disk) was 29 mm.
